{"source": "patent US4595695A", "about": "“1'-ethoxycarbonyloxyethyl ester of valproic acid, its preparation and pharmaceutical compositions containing it” (Teva Pharmaceutical Industries Ltd., priority 1983, dated 1986)", "key": {"[1]": {"assay": "stability of the ester in 0.01 N HCl", "type": "physicochemical", "conditions": "room temperature, first order kinetics, read-out: stability half-life time in 0.01 N HCl (converted)", "description": "(§1) The ester was quite stable at -20° C. or after HCl was added to the plasma mixture. […] All these half-life time calculations were done by assuming a first order linear kinetics of hydrolysis of the ester to valproic acid."}, "rats": {"test_system": "rats", "assay": "toxicity after oral administration to rats", "type": "in vivo, rat", "conditions": "20 and 100 mg/kg"}, "[2]": {"assay": "VPA plasma levels after oral administration of the ester to five dogs", "type": "in vivo, dog", "set-up": "key: --: Undetectable concentration of VPA", "description": "Concentration of VPA after oral administration of the ester of this invention to five dogs are presented in the following Table I. Each plasma sample was assayed three times and the results presented in Table I are mean ±S.D. of these analyses."}, "[3]": {"assay": "expected VPA plasma concentration after single oral administration of the ester to man", "type": "in vivo", "description": "Based on the prolonged absorption of VPA after administration of the ester, this new prodrug might be administered to epileptic patients twice or even once a day."}, "[4]": {"assay": "stability of the ester in plasma in vitro", "type": "in vitro ADME", "description": "as §1"}, "[5]": {"assay": "pharmacokinetic parameters of VPA in dogs after oral administration of the ester or DEPAKINE", "type": "in vivo, dog", "conditions": "for ka, absorption rate constant / CL/F / AUC / Vd/F / k el / half-life / Tmax: VPA, 400 mg; for CL/F / AUC / Vd/F / k el / half-life / Tmax: dog, in vivo, po; for AUC: read-out: AUC, area under the plasma conc. vs. time curve (row head is drawing 3) (converted); for Vd/F: read-out: V; for k el: read-out: ke, elimination rate constant (converted); for half-life: read-out: t1/2 elimin. (converted); for Tmax: read-out: t max obs, observed time to reach peak plasma concentration (converted)"}, "animals": {"test_system": "animals", "conditions": "in vivo; cited from earlier work"}, "[6]": {"conditions": "physiological pH; cited from earlier work"}, "[7]": {"conditions": "combination therapy with other anti-epileptic drugs; cited from earlier work"}, "[8]": {"conditions": "oral; cited from earlier work"}}, "note": "Where two headings read alike, the source gives them in different places.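 Wherever AUC is given: comparator arm received VPA orally as the free acid rather than as the ester.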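 Wherever CL is given: comparator arm received VPA orally as the free acid rather than as the ester.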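 Wherever ka, absorption rate constant is given: comparator arm received VPA orally as the free acid rather than as the ester.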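 Wherever ke, elimination rate constant is given: comparator arm received VPA orally as the free acid rather than as the ester.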"}
{"smiles": "CCCC(CCC)C(=O)OC(C)OC(=O)OCC", "note": "(stereo not drawn) [1'-ethoxycarbonyloxyethyl ester, 1'-ethoxycarbonyloxyethyl ester of valproic acid]", "values": [{"measurement": "half-life", "setting": "[1]", "value": 1940, "unit": "min"}, {"measurement": "toxicity", "setting": "rats", "value": "did not show any toxicity"}, {"measurement": "VPA plasma levels", "setting": "[2]; dog 1, 15 min", "value": "--"}, {"measurement": "VPA plasma levels", "setting": "[2]; dog 1, 660 min", "value": "--"}, {"measurement": "VPA plasma levels", "setting": "[2]; dog 1, 720 min", "value": "--"}, {"measurement": "VPA plasma levels", "setting": "[2]; dog 1, 780 min", "value": "--"}, {"measurement": "VPA plasma levels", "setting": "[2]; dog 1, 840 min", "value": "--"}, {"measurement": "VPA plasma levels", "setting": "[2]; dog 1, 900 min", "value": "--"}, {"measurement": "VPA plasma levels", "setting": "[2]; dog 2, 660 min", "value": "--"}, {"measurement": "VPA plasma levels", "setting": "[2]; dog 2, 840 min", "value": "--"}, {"measurement": "VPA plasma levels", "setting": "[2]; dog 2, 900 min", "value": "--"}, {"measurement": "VPA plasma levels", "setting": "[2]; dog 3, 720 min", "value": "--"}, {"measurement": "VPA plasma levels", "setting": "[2]; dog 3, 780 min", "value": "--"}, {"measurement": "VPA plasma levels", "setting": "[2]; dog 3, 840 min", "value": "--"}, {"measurement": "VPA plasma levels", "setting": "[2]; dog 3, 900 min", "value": "--"}, {"measurement": "VPA plasma levels", "setting": "[2]; dog 4, 45 min", "value": "--"}, {"measurement": "VPA plasma levels", "setting": "[2]; dog 4, 60 min", "value": "--"}, {"measurement": "VPA plasma levels", "setting": "[2]; dog 4, 75 min", "value": "--"}, {"measurement": "VPA plasma levels", "setting": "[2]; dog 4, 210 min", "value": "--"}, {"measurement": "VPA plasma levels", "setting": "[2]; dog 4, 660 min", "value": "--"}, {"measurement": "VPA plasma levels", "setting": "[2]; dog 4, 720 min", "value": "--"}, {"measurement": "VPA plasma levels", "setting": "[2]; dog 4, 780 min", "value": "--"}, {"measurement": "VPA plasma levels", "setting": "[2]; dog 4, 840 min", "value": "--"}, {"measurement": "VPA plasma levels", "setting": "[2]; dog 4, 900 min", "value": "--"}, {"measurement": "VPA plasma levels", "setting": "[2]; dog 5, 30 min", "value": "--"}, {"measurement": "VPA plasma levels", "setting": "[2]; dog 5, 660 min", "value": "--"}, {"measurement": "VPA plasma levels", "setting": "[2]; dog 5, 780 min", "value": "--"}, {"measurement": "VPA plasma levels", "setting": "[2]; dog 5, 840 min", "value": "--"}, {"measurement": "VPA plasma levels", "setting": "[2]; dog 5, 900 min", "value": "--"}, {"measurement": "expected VPA concentration profile in man", "setting": "[3]", "value": "prolonged pseudo steady state concentration"}, {"measurement": "stability at -20° C. or after HCl was added to the plasma mixture", "setting": "[4]; -20° C. or HCl added to plasma mixture", "value": "quite stable"}, {"measurement": "transformation to valproic acid in plasma", "setting": "[4]; plasma in vitro, room temperature", "value": "transformed to valproic acid"}, {"measurement": "half-life", "setting": "[4]; plasma in vitro, room temperature, first order kinetics", "value": 134, "unit": "min"}, {"measurement": "ka, absorption rate constant", "setting": "[5]; dog 1, oral", "value": 0.015, "unit": "min⁻¹"}, {"measurement": "ka, absorption rate constant", "setting": "[5]; dog 2, oral", "value": 0.02, "unit": "min⁻¹"}, {"measurement": "ka, absorption rate constant", "setting": "[5]; dog 3, oral", "value": 0.02, "unit": "min⁻¹"}, {"measurement": "ka, absorption rate constant", "setting": "[5]; dog 4, oral", "value": 0.01, "unit": "min⁻¹"}, {"measurement": "ka, absorption rate constant", "setting": "[5]; dog 5, oral", "value": 0.04, "unit": "min⁻¹"}, {"measurement": "CL/F", "setting": "[5]; dog 1", "value": 66.7, "unit": "mL/min"}, {"measurement": "AUC", "setting": "[5]; dog 1, oral", "value": 76800, "unit": "ng·h/mL"}, {"measurement": "Vd/F", "setting": "[5]; dog 1, oral", "value": 12.1, "unit": "L"}, {"measurement": "k el", "setting": "[5]; dog 1, oral", "value": "9.17e-05", "unit": "s⁻¹"}, {"measurement": "half-life", "setting": "[5]; dog 1, oral", "value": 126, "unit": "min"}, {"measurement": "Tmax", "setting": "[5]; dog 1, oral", "value": 2, "unit": "h"}, {"measurement": "CL/F", "setting": "[5]; dog 2", "value": 34.8, "unit": "mL/min"}, {"measurement": "AUC", "setting": "[5]; dog 2, oral", "value": 167000, "unit": "ng·h/mL"}, {"measurement": "Vd/F", "setting": "[5]; dog 2, oral", "value": 5.35, "unit": "L"}, {"measurement": "k el", "setting": "[5]; dog 2, oral", "value": 0.000108, "unit": "s⁻¹"}, {"measurement": "half-life", "setting": "[5]; dog 2, oral", "value": 107, "unit": "min"}, {"measurement": "Tmax", "setting": "[5]; dog 2, oral", "value": 1.4, "unit": "h"}, {"measurement": "CL/F", "setting": "[5]; dog 3", "value": 61.5, "unit": "mL/min"}, {"measurement": "AUC", "setting": "[5]; dog 3, oral", "value": 67700, "unit": "ng·h/mL"}, {"measurement": "Vd/F", "setting": "[5]; dog 3, oral", "value": 5.08, "unit": "L"}, {"measurement": "k el", "setting": "[5]; dog 3, oral", "value": 0.00202, "unit": "s⁻¹"}, {"measurement": "half-life", "setting": "[5]; dog 3, oral", "value": 57, "unit": "min"}, {"measurement": "Tmax", "setting": "[5]; dog 3, oral", "value": 1.17, "unit": "h"}, {"measurement": "CL/F", "setting": "[5]; dog 4", "value": 56.5, "unit": "mL/min"}, {"measurement": "AUC", "setting": "[5]; dog 4, oral", "value": 81200, "unit": "ng·h/mL"}, {"measurement": "Vd/F", "setting": "[5]; dog 4, oral", "value": 8.69, "unit": "L"}, {"measurement": "k el", "setting": "[5]; dog 4, oral", "value": 0.000108, "unit": "s⁻¹"}, {"measurement": "half-life", "setting": "[5]; dog 4, oral", "value": 107, "unit": "min"}, {"measurement": "Tmax", "setting": "[5]; dog 4, oral", "value": 2.5, "unit": "h"}, {"measurement": "CL/F", "setting": "[5]; dog 5", "value": 42.7, "unit": "mL/min"}, {"measurement": "AUC", "setting": "[5]; dog 5, oral", "value": 142000, "unit": "ng·h/mL"}, {"measurement": "Vd/F", "setting": "[5]; dog 5, oral", "value": 7.24, "unit": "L"}, {"measurement": "Tmax", "setting": "[5]; dog 5, oral", "value": 1.2, "unit": "h"}, {"measurement": "VPA plasma levels between 30 to 240 minutes", "setting": "[5]; dogs, after ester administration", "value": "More or less constant plasma levels"}, {"measurement": "difference between the maximal and minimal steady state levels", "setting": "[5]; dogs, between 30 to 240 minutes", "value": "less than a two-fold difference"}, {"measurement": "distribution and elimination parameters of VPA compared between the two drug products", "setting": "[5]; dogs, exception: V in dog number 1", "value": "not significantly different"}, {"measurement": "absorption rate of VPA compared with free acid", "setting": "[5]; dogs, oral, ester versus free acid", "value": "two to five times slower"}]}
{"smiles": "CCCC(CCC)COC(=O)C(CCC)CCC", "note": "[2-propylpentanol-di-n-propyl acetate]", "values": [{"measurement": "toxicity to animals", "setting": "animals", "value": "very toxic to animals"}]}
{"smiles": "CCCC(CCC)C(=O)O", "note": "[VPA, di-n-propylacetic acid]", "values": [{"measurement": "ionization of carboxylic group", "setting": "[6]", "value": "significantly ionized"}, {"measurement": "half life time in combination therapy", "setting": "[7]", "value": "even shorter than in a single therapy"}]}
{"smiles": "CCCC(CCC)C(N)=O", "note": "[VPD, Valpromide-dipropylacetamide]", "values": [{"measurement": "absorption compared with VPA", "setting": "[8]", "value": "slower absorption than VPA"}, {"measurement": "bioavailability", "setting": "[8]", "value": "low bioavailability"}]}
